{"source": "patent US7897619B2", "about": "“Heterocyclic modulators of PKB” (Amgen Inc., priority 2007, dated 2011)", "note": "Counter-ions that a name gives are not always drawn.", "data": [{"biological_target": "PKBα (Homo sapiens, UniProt P31749)", "sequence (P31749 118-480 limits assumed)": "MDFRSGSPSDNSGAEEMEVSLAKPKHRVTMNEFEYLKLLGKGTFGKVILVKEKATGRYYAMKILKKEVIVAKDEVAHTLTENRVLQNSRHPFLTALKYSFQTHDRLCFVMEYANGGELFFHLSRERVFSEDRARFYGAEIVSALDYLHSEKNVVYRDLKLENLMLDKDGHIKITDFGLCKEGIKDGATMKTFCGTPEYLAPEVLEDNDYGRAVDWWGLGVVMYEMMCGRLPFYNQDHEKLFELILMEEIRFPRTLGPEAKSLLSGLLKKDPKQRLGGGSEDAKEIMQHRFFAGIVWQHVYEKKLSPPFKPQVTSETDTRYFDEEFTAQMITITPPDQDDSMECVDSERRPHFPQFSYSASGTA", "experiment": "PKB kinase assay (P33-labeled ATP, synthetic peptide substrate, filter plate)", "type": "biochemical", "settings": "PKBα enzyme (full length or kinase domain with pleckstrin domain deleted)", "description": "The kinase assay for evaluating PKB activity comprises active PKB enzymes, a PKB specific substrate, and P^33-labeled ATP. Two forms of PKBα enzymes were used, the full length PKBα and a kinase domain of PKBα with pleckstrin domain (amino acids 1-117) deleted. Both PKB enzymes were obtained from Upstate cell signaling solutions (Cat.# 14-276 and 14-341). The PKB substrate used is a synthetic peptide (ARKRERTYSFGHHA (SEQ ID NO: 1)) as described in Obata et al., J. Biol. Chem. 275 (46), 36108-36115 (2000). The phosphorylated substrate was captured by a phosphocellulose membrane filter plate (MILLIPORE) and measured by a Wallac Microbeta liquid scintillation counter (Perkin Elmer). Table 1 provides the IC50 values obtained for each of the examples with respect to PKBα.", "units": {"IC50": "µM"}, "values": [{"smiles": "Cc1ccc(C[C@H](N)CCn2cc(-c3ccc4cnccc4c3)cn2)cc1", "note": "[Example 58, (2S)-4-(4-(Isoquinolin-6-yl)-1H-pyrazol-1-yl)-1-p-tolylbutan-2-amine]", "IC50": "0.05 to 1"}, {"smiles": "N[C@H](CNc1cnn(-c2ccc3cnccc3c2)c1)Cc1ccc(Cl)cc1", "note": "[Example 46, N-((S)-2-Amino-3-(4-chlorophenyl)propyl)-1-(isoquinolin-6-yl)-1H-pyrazol-4-amine]", "IC50": "0.05 to 1"}, {"smiles": "N[C@H](CCc1cc(-c2ccc3cnccc3c2)no1)Cc1ccccc1", "note": "[Example 23, (2R)-4-(3-(isoquinolin-6-yl)isoxazol-5-yl)-1-phenylbutan-2-amine]", "IC50": "1 to 10"}, {"smiles": "N[C@H](CNc1cc(-c2ccc3cnccc3c2)no1)Cc1ccc(C(F)(F)F)cc1", "note": "[Example 14, N-((S)-2-Amino-3-(4-(trifluoromethyl)phenyl)propyl)-3-(isoquinolin-6-yl)isoxazol-5-amine]", "IC50": "< 0.05"}, {"smiles": "N[C@@H](Cc1ccc(C(F)(F)F)cc1)Cc1nc(-c2ccc3cnccc3c2)no1", "note": "[Example 4, (2S)-1-(3-(Isoquinolin-6-yl)-1,2,4-oxadiazol-5-yl)-3-(4-(trifluoromethyl)phenyl)propan-2-amine]", "IC50": "1 to 10"}, {"smiles": "N[C@H](CNc1nsc(-c2ccc3c(c2)CC(=O)N3)n1)Cc1ccc(C(F)(F)F)cc1", "note": "[Example 47, 5-(3-((S)-2-Amino-3-(4-(trifluoromethyl)phenyl)propylamino)-1,2,4-thiadiazol-5-yl)indolin-2-one]", "IC50": "0.05 to 1"}, {"smiles": "Cc1n[nH]c2ccc(-c3cn(CC[C@@H](N)Cc4ccc(C(F)(F)F)cc4)nn3)cc12", "note": "[Example 38, (2S)-4-(4-(3-Methyl-1H-indazol-5-yl)-1H-1,2,3-triazol-1-yl)-1-(4-(trifluoromethyl)phenyl)butan-2-amine]", "IC50": "0.05 to 1"}, {"smiles": "CC(C)Cc1c(-c2ccc3cnccc3c2)noc1NC[C@@H](N)Cc1c[nH]c2ccccc12", "note": "[Example 34, N-((S)-2-Amino-3-(1H-indol-3-yl)propyl)-4-isobutyl-3-(isoquinolin-6-yl)isoxazol-5-amine]", "IC50": "1 to 10"}, {"smiles": "N[C@H](CCn1cc(-c2ccc3cnccc3c2)cn1)Cc1ccc(Cl)cc1Cl", "note": "[Example 63, (2S)-1-(2,4-Dichlorophenyl)-4-(4-(isoquinolin-6-yl)-1H-pyrazol-1-yl)butan-2-amine]", "IC50": "0.05 to 1"}, {"smiles": "N[C@H](CNc1nnc(-c2ccc3cnccc3c2)o1)Cc1ccc(C(F)(F)F)cc1", "note": "[Example 1, N-((S)-2-amino-3-(4-(trifluoromethyl)phenyl)propyl)-5-(isoquinolin-6-yl)-1,3,4-oxadiazol-2-amine]", "IC50": "0.05 to 1"}, {"smiles": "N[C@H](CNc1cnc(-c2ccc3cnccc3c2)s1)Cc1ccc(C(F)(F)F)cc1", "note": "[Example 41, N-((S)-2-Amino-3-(4-(trifluoromethyl)phenyl)propyl)-2-(isoquinolin-6-yl)thiazol-5-amine trifluoroacetate]", "IC50": "0.05 to 1"}, {"smiles": "COc1ccc(CNc2ncc(-c3ccc4cnccc4c3)o2)cc1", "note": "[Example 6, N-(4-Methoxybenzyl)-5-(isoquinolin-6-yl)oxazol-2-amine]", "IC50": "1 to 10"}, {"smiles": "N[C@H](CNc1nc(-c2ccc3cnccc3c2)ns1)Cc1ccc(C(F)(F)F)cc1", "note": "[Example 43, N-((S)-2-Amino-3-(4-(trifluoromethyl)phenyl)propyl)-3-(isoquinolin-6-yl)-1,2,4-thiadiazol-5-amine]", "IC50": "0.05 to 1"}, {"smiles": "N[C@H](CCn1cc(-c2ccc3cnccc3c2)cn1)Cc1ccc(Cl)cc1", "note": "[Example 56, (2S)-1-(4-Chlorophenyl)-4-(4-(isoquinolin-6-yl)-1H-pyrazol-1-yl)butan-2-amine]", "IC50": "< 0.05"}, {"smiles": "N[C@@H](Cc1ccc(C(F)(F)F)cc1)c1nc(-c2ccc3c(c2)CC(=O)N3)no1", "note": "[Example 49, 5-(5-((S)-1-Amino-2-(4-(trifluoromethyl)phenyl)ethyl)-1,2,4-oxadiazol-3-yl)indolin-2-one]", "IC50": "1 to 10"}, {"smiles": "Cn1c(=O)[nH]c2ccc(-c3cnn(CC[C@@H](N)Cc4ccc(Cl)cc4)c3)cc21", "note": "[Example 54, 6-(1-((S)-3-Amino-4-(4-chlorophenyl)butyl)-1H-pyrazol-4-yl)-1-methyl-1H-benzo[d]imidazol-2(3H)-one]", "IC50": "0.05 to 1"}, {"smiles": "N[C@H](CNc1cc(-c2ccc3cnccc3c2)no1)Cc1cccc(C(F)(F)F)c1", "note": "[Example 13, N-((S)-2-Amino-3-(3-(trifluoromethyl)phenyl)propyl)-3-(isoquinolin-6-yl)isoxazol-5-amine]", "IC50": "< 0.05"}, {"smiles": "N[C@H](CCc1cc(-c2ccc3cnccc3c2)no1)Cc1ccc(Cl)cc1", "note": "[Example 25, (2R)-1-(4-Chlorophenyl)-4-(3-(isoquinolin-6-yl)isoxazol-5-yl)butan-2-amine]", "IC50": "0.05 to 1"}, {"smiles": "N[C@H](CNc1cc(-c2ccc3cnccc3c2)on1)Cc1cccc(Cl)c1", "note": "[Example 21, N-((S)-2-Amino-3-(3-chlorophenyl)propyl)-5-(isoquinolin-6-yl)isoxazol-3-amine]", "IC50": "0.05 to 1"}, {"smiles": "N[C@H](CCc1cc(-c2ccc3cnccc3c2)no1)Cc1ccc(Cl)cc1Cl", "note": "[Example 30, (2R)-1-(2,4-Dichlorophenyl)-4-(3-(isoquinolin-6-yl)isoxazol-5-yl)butan-2-amine]", "IC50": "0.05 to 1"}, {"smiles": "N[C@H](CCc1nc(-c2ccc3c(c2)CC(=O)N3)no1)Cc1ccc(C(F)(F)F)cc1", "note": "[Example 48, 5-(5-((R)-3-Amino-4-(4-(trifluoromethyl)phenyl)butyl)-1,2,4-oxadiazol-3-yl)indolin-2-one]", "IC50": "0.05 to 1"}, {"smiles": "N[C@H](CNc1cc(-c2ccc3cnccc3c2)on1)Cc1ccc(C(F)(F)F)cc1", "note": "[Example 20, N-((S)-2-Amino-3-(4-(trifluoromethyl)phenyl)propyl)-5-(isoquinolin-6-yl)isoxazol-3-amine]", "IC50": "0.05 to 1"}, {"smiles": "N[C@H](CNc1nc(-c2ccc3[nH]ncc3c2)ns1)Cc1ccc(C(F)(F)F)cc1", "note": "[Example 45, N-((S)-2-Amino-3-(4-(trifluoromethyl)phenyl)propyl)-3-(1H-indazol-5-yl)-1,2,4-thiadiazol-5-amine]", "IC50": "1 to 10"}, {"smiles": "N[C@H](CCc1cc(-c2ccc3cnccc3c2)no1)Cc1ccccc1Cl", "note": "[Example 27, (2R)-1-(2-chlorophenyl)-4-(3-(isoquinolin-6-yl)isoxazol-5-yl)butan-2-amine]", "IC50": "1 to 10"}, {"smiles": "N[C@H](CCn1cc(-c2ccc3cnccc3c2)cn1)Cc1ccc(F)cc1", "note": "[Example 62, (2S)-1-(4-Fluorophenyl)-4-(4-(isoquinolin-6-yl)-1H-pyrazol-1-yl)butan-2-amine]", "IC50": "0.05 to 1"}, {"smiles": "N[C@H](CCn1cc(-c2ccc3cnccc3c2)cn1)Cc1ccc(Cl)c(Cl)c1", "note": "[Example 60, (2S)-1-(3,4-Dichlorophenyl)-4-(4-(isoquinolin-6-yl)-1H-pyrazol-1-yl)butan-2-amine]", "IC50": "0.05 to 1"}, {"smiles": "N[C@H](CCn1cc(-c2ccc3cnccc3c2)cn1)Cc1ccc(C(F)(F)F)cc1", "note": "[Example 57, (2S)-4-(4-(Isoquinolin-6-yl)-1H-pyrazol-1-yl)-1-(4-(trifluoromethyl)phenyl)butan-2-amine]", "IC50": "< 0.05"}]}]}
